Where “and” joins values, the source holds several entries; their conditions need not be identical. Equal values may be shown once. Entries after “also recorded” stand apart in the source; their conditions may differ.
Legend:
[1] = tested on: Jurkat, SKOV-3 and MESO-1 cells; assay: Cytotoxicity assay, statements for all tested cell lines together; assay type: cell-based
Protocol: Jurkat cells were cultured in RPMI1640 medium supplemented with 10% foetal bovine serum, penicillin (50 U/ml), streptomycin (50 μg/ml), and Glutamax. SKOV-3 cells were cultured in DMEM medium supplemented with 10% fetal bovine serum, penicillin (50 U/ml), and streptomycin (50 μg/ml). MESO-1 cells were cultured in RPMI1640 medium supplemented with 10% fetal bovine serum, penicillin (50 U/ml), and streptomycin (50 μg/ml). All cell lines were seeded in a 384-well plate at a density of 1000 cells/well in 20 μl of media and incubated at 37 °C in a humidified incubator with 5% CO2. After 4 h, 2-fold dilution samples resolved in DMSO were added to the cell culture at the concentration of 0.5% (0.1 μl) and incubated for 72 h. Cell viabilities were measured using a CellTiter-Glo luminescent cell viability assay and EnVision multilabel plate reader.

[2] = Cytotoxicity assay (CellTiter-Glo, 72 h), Jurkat; assay type: cell-based; conditions: human, Jurkat cells (T lymphoma), raw data (replicates)
In short: (§1)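 1000 cells/well; 4 h settle, then 2-fold serial dilutions (0.5% DMSO final), 72 h, 37 °C/5% CO2. Read-out: CellTiter-Glo luminescence. Media: RPMI1640 + 10% FBS (Jurkat, MESO-1; Jurkat also Glutamax), DMEM + 10% FBS (SKOV-3).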

T lymphoma Jurkat cells = assay: Cytotoxicity assay (CellTiter-Glo, 72 h), Jurkat; assay type: cell-based; conditions: raw data (replicates)
In short: as §1

FKBP12 and mTOR = biological target: T1, FKBP12 and mTOR (Homo sapiens, UniProt P42345+P62942); assay: Fluoppi analysis: induction of FKBP12-mTOR complex formation in transfected HeLa cells; assay type: cell-based; conditions: for Foci intensity: raw data, one replicate per line
T1 construct: host or cells: HeLa cells
T1 sequence (P42345 2025-2114 limits assumed): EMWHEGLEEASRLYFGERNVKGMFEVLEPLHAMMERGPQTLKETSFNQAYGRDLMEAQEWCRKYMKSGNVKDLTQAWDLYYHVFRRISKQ
T1 sequence (P62942 whole entry): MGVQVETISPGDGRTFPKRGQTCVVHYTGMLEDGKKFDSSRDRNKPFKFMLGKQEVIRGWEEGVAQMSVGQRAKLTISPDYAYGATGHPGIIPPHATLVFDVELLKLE
In short: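 HeLa cells co-transfected with phAG-mTOR and pAsh-FKBP12, seeded 3000 cells/well, then compound-treated 1 h after 24 h at 37 °C. Fixed, Hoechst-stained, imaged by high-content microscopy; foci fluorescence normalized to total cell fluorescence, EC50 computed.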

[3] = Cytotoxicity assay (CellTiter-Glo, 72 h), SKOV-3; assay type: cell-based, human; conditions: human, raw replicate data, read-out: SKOV3 viability (%)
In short: as §1

[4] = tested on: human ovarian adenocarcinoma SKOV-3 cells; assay: Cytotoxicity assay (CellTiter-Glo, 72 h), SKOV-3; assay type: cell-based; conditions: raw replicate data
In short: as §1

## COC1CC2CCC(C)C(O)(O2)C(=O)C(=O)N2CCCCC2C(=O)OC(C(C)CC2CCC(O)C(OC)C2)CC(=O)C(C)C=C(C)C(O)C(OC)C(=O)C(C)CC(C)C=CCCC=C1C (stereo not drawn) [Compound 15, 19,20-dihidro-rapamycin]
[1]; Jurkat, SKOV-3 and MESO-1 cells, 72 h
  Effect on cell viability, in words: slightly suppressed the cell viabilities
[1]; relative to rapamycin (1)
  Cytostatic effect, fold lower than that of 1: ~ 100 fold
[2]; conc 9.53674e-5 uM
  viability at 72 h, 9.53674e-05 uM: 98.3%
[2]; conc 0.000190735 uM
  viability at 72 h, 0.000190735 uM: 102%
[2]; conc 0.00038147 uM
  viability at 72 h, 0.00038147 uM: 96.7%
[2]; conc 0.000762939 uM
  viability at 72 h, 0.000762939 uM: 101%
[2]; conc 0.00152588 uM
  viability at 72 h, 0.00152588 uM: 97.4%
[2]; conc 0.00305176 uM
  viability at 72 h, 0.00305176 uM: 94.6%
[2]; conc 0.00610352 uM
  viability at 72 h, 0.00610352 uM: 96.3%
[2]; conc 0.012207 uM
  viability at 72 h, 0.012207 uM: 95.5%
[2]; conc 0.0244141 uM
  viability at 72 h, 0.0244141 uM: 98.5%
[2]; conc 0.0488281 uM
  viability at 72 h, 0.0488281 uM: 84.9%
[2]; conc 0.0976562 uM
  viability at 72 h, 0.0976562 uM: 83.5%
[2]; conc 0.195312 uM
  viability at 72 h, 0.195312 uM: 65.5%
[2]; conc 0.390625 uM
  viability at 72 h, 0.390625 uM: 61.7%
[2]; conc 0.78125 uM
  viability at 72 h, 0.78125 uM: 43.6%
[2]; conc 1.5625 uM
  viability at 72 h, 1.5625 uM: 40.7%
[2]; conc 3.125 uM
  viability at 72 h, 3.125 uM: 28.2%
[2]; conc 6.25 uM
  viability at 72 h, 6.25 uM: 26.6%
[2]; conc 12.5 uM
  viability at 72 h, 12.5 uM: 25.9%
[2]; conc 25 uM
  viability at 72 h, 25 uM: 1%
T lymphoma Jurkat cells; conc 9.53674e-5 uM
  Jurkat viability (%): 103.4% and 100.1%
T lymphoma Jurkat cells; conc 0.000190735 uM
  Jurkat viability (%): 103.2%
T lymphoma Jurkat cells; conc 0.00038147 uM
  Jurkat viability (%): 100.9% and 97.1%
T lymphoma Jurkat cells; conc 0.000762939 uM
  Jurkat viability (%): 96.9%
T lymphoma Jurkat cells; conc 0.00152588 uM
  Jurkat viability (%): 95.1% and 104.8%
T lymphoma Jurkat cells; conc 0.00305176 uM
  Jurkat viability (%): 96.4% and 103.3%
T lymphoma Jurkat cells; conc 0.00610352 uM
  Jurkat viability (%): 98.6% and 98.2%
T lymphoma Jurkat cells; conc 0.012207 uM
  Jurkat viability (%): 89.1% and 95.4%
T lymphoma Jurkat cells; conc 0.0244141 uM
  Jurkat viability (%): 88.3% and 94.3%
T lymphoma Jurkat cells; conc 0.0488281 uM
  Jurkat viability (%): 80.5% and 86.7%
T lymphoma Jurkat cells; conc 0.0976562 uM
  Jurkat viability (%): 80.2% and 77.6%
T lymphoma Jurkat cells; conc 0.195312 uM
  Jurkat viability (%): 65.6% and 66.3%
T lymphoma Jurkat cells; conc 0.390625 uM
  Jurkat viability (%): 56.5% and 56.0%
T lymphoma Jurkat cells; conc 0.78125 uM
  Jurkat viability (%): 41.6% and 42.0%
T lymphoma Jurkat cells; conc 1.5625 uM
  Jurkat viability (%): 32.3% and 35.9%
T lymphoma Jurkat cells; conc 3.125 uM
  Jurkat viability (%): 27.6% and 27.0%
T lymphoma Jurkat cells; conc 6.25 uM
  Jurkat viability (%): 24.6% and 25.7%
T lymphoma Jurkat cells; conc 12.5 uM
  Jurkat viability (%): 23.9% and 25.0%
T lymphoma Jurkat cells; conc 25 uM
  Jurkat viability (%): 1.5% and 1.1%
T lymphoma Jurkat cells; conc 50 uM
  Jurkat viability (%): 0.429% and 0.113% and 0.047%
FKBP12 and mTOR
  EC50: 6.3 nM
FKBP12 and mTOR; Fluoppi
  PPI-inducing (binding enhancing) activity between FKBP12 and mTOR compared with rapamycin (1), in words: as potent as rapamycin; also recorded: comparable level to that of rapamycin
FKBP12 and mTOR; conc 9.53674e-5 uM
  Foci intensity: 0.01733 and 0.01067 and 0.005693
FKBP12 and mTOR; conc 0.000190735 uM
  Foci intensity: 0.01213 and 0.0332 and 0.01291
FKBP12 and mTOR; conc 0.00038147 uM
  Foci intensity: 0.02253 and 0.02952 and 0.01485
FKBP12 and mTOR; conc 0.000762939 uM
  Foci intensity: 0.009661 and 0.01831 and 0.03236
FKBP12 and mTOR; conc 0.00152588 uM
  Foci intensity: 0.02962 and 0.01659 and 0.0505
FKBP12 and mTOR; conc 0.00305176 uM
  Foci intensity: 0.04113 and 0.07899 and 0.06427
FKBP12 and mTOR; conc 0.00610352 uM
  Foci intensity: 0.1575 and 0.2102 and 0.171
FKBP12 and mTOR; conc 0.012207 uM
  Foci intensity: 0.3436 and 0.3356 and 0.3668
FKBP12 and mTOR; conc 0.0244141 uM
  Foci intensity: 0.3409 and 0.4046 and 0.3885
FKBP12 and mTOR; conc 0.0488281 uM
  Foci intensity: 0.3546 and 0.3355 and 0.3935
FKBP12 and mTOR; conc 0.0976562 uM
  Foci intensity: 0.3693 and 0.3135 and 0.3917
FKBP12 and mTOR; conc 0.195312 uM
  Foci intensity: 0.3656 and 0.4341 and 0.3989
FKBP12 and mTOR; conc 0.390625 uM
  Foci intensity: 0.405 and 0.3385 and 0.3714
FKBP12 and mTOR; conc 0.78125 uM
  Foci intensity: 0.3465 and 0.4349 and 0.4007
FKBP12 and mTOR; conc 1.5625 uM
  Foci intensity: 0.3165 and 0.3834 and 0.336
FKBP12 and mTOR; conc 3.125 uM
  Foci intensity: 0.3857 and 0.3532 and 0.3973
FKBP12 and mTOR; conc 6.25 uM
  Foci intensity: 0.3637 and 0.3694 and 0.3083
FKBP12 and mTOR; conc 12.5 uM
  Foci intensity: 0.3396 and 0.3224 and 0.3917
FKBP12 and mTOR; conc 25 uM
  Foci intensity: 0.3402 and 0.3226 and 0.4132
FKBP12 and mTOR; conc 50 uM
  Foci intensity: 0.4382 and 0.3564 and 0.4638
[3]; SKOV-3 cells (ovarian adenocarcinoma), conc 9.53674e-5 uM
  viability at 72 h, 9.53674e-05 uM: 106%
[3]; SKOV-3 cells (ovarian adenocarcinoma), conc 0.000190735 uM
  viability at 72 h, 0.000190735 uM: 101%
[3]; SKOV-3 cells (ovarian adenocarcinoma), conc 0.00038147 uM
  viability at 72 h, 0.00038147 uM: 102%
[3]; SKOV-3 cells (ovarian adenocarcinoma), conc 0.000762939 uM
  viability at 72 h, 0.000762939 uM: 102%
[3]; SKOV-3 cells (ovarian adenocarcinoma), conc 0.00152588 uM
  viability at 72 h, 0.00152588 uM: 105%
[3]; SKOV-3 cells (ovarian adenocarcinoma), conc 0.00305176 uM
  viability at 72 h, 0.00305176 uM: 108%
[3]; SKOV-3 cells (ovarian adenocarcinoma), conc 0.00610352 uM
  viability at 72 h, 0.00610352 uM: 104%
[3]; SKOV-3 cells (ovarian adenocarcinoma), conc 0.012207 uM
  viability at 72 h, 0.012207 uM: 106%
[3]; SKOV-3 cells (ovarian adenocarcinoma), conc 0.0244141 uM
  viability at 72 h, 0.0244141 uM: 102%
[3]; SKOV-3 cells (ovarian adenocarcinoma), conc 0.0488281 uM
  viability at 72 h, 0.0488281 uM: 95.2%
[3]; SKOV-3 cells (ovarian adenocarcinoma), conc 0.0976562 uM
  viability at 72 h, 0.0976562 uM: 99.4%
[3]; SKOV-3 cells (ovarian adenocarcinoma), conc 0.195312 uM
  viability at 72 h, 0.195312 uM: 91%
[3]; SKOV-3 cells (ovarian adenocarcinoma), conc 0.390625 uM
  viability at 72 h, 0.390625 uM: 84.3%
[3]; SKOV-3 cells (ovarian adenocarcinoma), conc 12.5 uM
  viability at 72 h, 12.5 uM: 63.5%
[3]; SKOV-3 cells (ovarian adenocarcinoma), conc 25 uM
  viability at 72 h, 25 uM: 51.1%
[3]; SKOV-3 cells (ovarian adenocarcinoma), conc 50 uM
  viability at 72 h, 50 uM: 4%
[3]; SKOV-3 ovarian adenocarcinoma cells, conc 0.78125 uM
  viability at 72 h, 0.78125 uM: 77.1%
[3]; SKOV-3 ovarian adenocarcinoma cells, conc 1.5625 uM
  viability at 72 h, 1.5625 uM: 85.7%
[3]; SKOV-3 ovarian adenocarcinoma cells, conc 3.125 uM
  viability at 72 h, 3.125 uM: 72.5%
[3]; SKOV-3 ovarian adenocarcinoma cells, conc 6.25 uM
  viability at 72 h, 6.25 uM: 65.8%
[4]; conc 9.53674e-5 uM
  SKOV3 viability (%): 104.4%
[4]; conc 0.000190735 uM
  SKOV3 viability (%): 106.7% and 103.7%
[4]; conc 0.00038147 uM
  SKOV3 viability (%): 104.3% and 105.3%
[4]; conc 0.000762939 uM
  SKOV3 viability (%): 104.7% and 102.3%
[4]; conc 0.00152588 uM
  SKOV3 viability (%): 105.8%
[4]; conc 0.00610352 uM
  SKOV3 viability (%): 104.8% and 103.3%
[4]; conc 0.012207 uM
  SKOV3 viability (%): 100.2% and 102.5%
[4]; conc 0.0244141 uM
  SKOV3 viability (%): 99.1% and 104.1%
[4]; conc 0.0488281 uM
  SKOV3 viability (%): 98.9% and 94.0%
[4]; conc 0.0976562 uM
  SKOV3 viability (%): 97.9% and 101.5%
[4]; conc 0.195312 uM
  SKOV3 viability (%): 91.8% and 87.6%
[4]; conc 0.390625 uM
  SKOV3 viability (%): 93.7% and 87.4%
[4]; conc 0.78125 uM
  SKOV3 viability (%): 82.2% and 82.5%
[4]; conc 1.5625 uM
  SKOV3 viability (%): 81.5% and 77.5%
[4]; conc 3.125 uM
  SKOV3 viability (%): 73.9% and 77.4%
[4]; conc 6.25 uM
  SKOV3 viability (%): 68.2% and 74.1%
[4]; conc 12.5 uM
  SKOV3 viability (%): 67.0% and 61.2%
[4]; conc 25 uM
  SKOV3 viability (%): 54.3% and 53.4%
[4]; conc 50 uM
  SKOV3 viability (%): 3.9% and 4.5%

Reference: PMC7419507, “In vitro Cas9-assisted editing of modular polyketide synthase genes to produce desired natural product derivatives” (Nature Communications, 2020)
